How the values were obtained:
Experiment in all cases: radiometric filter-binding kinase assay, Kinase HotSpot
Conditions in all cases: compound 0.5 µM; ATP 10 µM
CDK1 CCNA2 (human) = CDK1 CCNA2 (human) (UniProt P06493+P20248)
CDK1 CCNB1 (human) = CDK1 CCNB1 (human) (UniProt P06493+P14635)
CDK2 CCNA2 (human) = CDK2 CCNA2 (human) (UniProt P24941+P20248)
CDK2 CCNE1 (human) = CDK2 CCNE1 (human) (UniProt P24941+P24864)
CDK3 CCNE1 (human) = CDK3 CCNE1 (human) (UniProt Q00526+P24864)
CDK4 CCND1 (human) = CDK4 CCND1 (human) (UniProt P24385+P11802)
CDK4 CCND3 (human) = CDK4 CCND3 (human) (UniProt P30281+P11802)
CDK5 CDK5R1 p25 (human) = CDK5 CDK5R1 p25 (human) (UniProt Q00535+Q15078)
CDK5 CDK5R1 p35 (human) = CDK5 CDK5R1 p35 (human) (UniProt Q00535+Q15078)
CDK6 CCND1 (human) = CDK6 CCND1 (human) (UniProt Q00534+P24385)
CDK6 CCND3 (human) = CDK6 CCND3 (human) (UniProt P30281+Q00534)
CDK7 CCNH MNAT1 (human) = CDK7 CCNH MNAT1 (human) (UniProt P50613+P51948+P51946)
CDK9 CCNK (human) = CDK9 CCNK (human) (UniProt O75909+P50750)
CDK9 CCNT1 (human) = CDK9 CCNT1 (human) (UniProt P50750+O60563)
DYRK1B (human) = DYRK1B (human) (UniProt Q9Y463)
LTK (human) = LTK (human) (UniProt P29376)
MAP3K7 TAB1 (human) = MAP3K7 TAB1 (human) (UniProt O43318+Q15750)
STK33 (human) = STK33 (human) (UniProt Q9BYT3)
PRKCH (human) = PRKCH (human) (UniProt P24723)
PRKCH (human), sequence (P24723 whole entry, looked up): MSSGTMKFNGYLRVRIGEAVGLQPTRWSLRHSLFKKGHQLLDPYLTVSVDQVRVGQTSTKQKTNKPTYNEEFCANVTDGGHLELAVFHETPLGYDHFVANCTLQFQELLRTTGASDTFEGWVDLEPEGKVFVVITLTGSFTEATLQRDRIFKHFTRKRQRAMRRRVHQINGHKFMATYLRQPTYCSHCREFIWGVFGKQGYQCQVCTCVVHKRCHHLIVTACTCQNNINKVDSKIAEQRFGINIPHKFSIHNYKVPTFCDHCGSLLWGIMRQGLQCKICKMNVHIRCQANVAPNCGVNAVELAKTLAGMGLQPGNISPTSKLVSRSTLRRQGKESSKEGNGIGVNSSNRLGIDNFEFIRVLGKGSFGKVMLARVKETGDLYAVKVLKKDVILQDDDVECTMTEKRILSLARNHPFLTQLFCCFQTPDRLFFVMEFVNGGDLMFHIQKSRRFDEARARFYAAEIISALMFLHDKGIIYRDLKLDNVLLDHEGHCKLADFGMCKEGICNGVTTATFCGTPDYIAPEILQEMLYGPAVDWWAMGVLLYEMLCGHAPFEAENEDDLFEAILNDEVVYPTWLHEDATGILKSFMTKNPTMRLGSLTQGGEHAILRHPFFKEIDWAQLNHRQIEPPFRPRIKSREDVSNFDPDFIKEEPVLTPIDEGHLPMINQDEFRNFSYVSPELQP

CDK7 CCNH MNAT1 (human), sequence (P50613 whole entry, looked up): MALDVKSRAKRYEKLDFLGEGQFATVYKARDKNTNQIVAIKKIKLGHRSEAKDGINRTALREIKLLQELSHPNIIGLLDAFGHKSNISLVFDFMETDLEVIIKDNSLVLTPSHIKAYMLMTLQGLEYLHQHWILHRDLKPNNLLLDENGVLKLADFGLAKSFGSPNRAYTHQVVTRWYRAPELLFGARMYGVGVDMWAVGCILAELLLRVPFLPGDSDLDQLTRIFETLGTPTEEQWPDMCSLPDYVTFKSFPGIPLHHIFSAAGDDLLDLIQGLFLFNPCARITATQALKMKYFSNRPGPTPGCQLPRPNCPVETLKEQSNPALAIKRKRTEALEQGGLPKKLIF
CDK7 CCNH MNAT1 (human), sequence (P51946 whole entry, looked up): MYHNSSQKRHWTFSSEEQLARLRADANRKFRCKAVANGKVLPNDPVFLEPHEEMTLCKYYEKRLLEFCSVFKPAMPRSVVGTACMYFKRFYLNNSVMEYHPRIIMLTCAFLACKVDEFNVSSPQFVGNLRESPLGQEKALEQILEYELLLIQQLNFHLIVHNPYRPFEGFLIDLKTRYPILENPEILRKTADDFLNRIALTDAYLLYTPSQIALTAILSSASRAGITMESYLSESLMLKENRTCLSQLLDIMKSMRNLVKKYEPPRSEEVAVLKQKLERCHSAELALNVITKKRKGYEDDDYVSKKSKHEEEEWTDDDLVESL
CDK7 CCNH MNAT1 (human), sequence (P51948 whole entry, looked up): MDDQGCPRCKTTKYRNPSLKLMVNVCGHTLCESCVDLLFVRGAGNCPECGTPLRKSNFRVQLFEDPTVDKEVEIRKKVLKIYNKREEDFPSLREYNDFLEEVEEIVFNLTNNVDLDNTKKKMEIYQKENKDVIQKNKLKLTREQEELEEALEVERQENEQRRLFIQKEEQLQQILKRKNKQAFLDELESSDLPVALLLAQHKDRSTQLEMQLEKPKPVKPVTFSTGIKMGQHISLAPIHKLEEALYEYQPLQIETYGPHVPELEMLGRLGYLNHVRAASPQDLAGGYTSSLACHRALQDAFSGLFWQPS
CDK1 CCNB1 (human), sequence (P06493 whole entry, looked up): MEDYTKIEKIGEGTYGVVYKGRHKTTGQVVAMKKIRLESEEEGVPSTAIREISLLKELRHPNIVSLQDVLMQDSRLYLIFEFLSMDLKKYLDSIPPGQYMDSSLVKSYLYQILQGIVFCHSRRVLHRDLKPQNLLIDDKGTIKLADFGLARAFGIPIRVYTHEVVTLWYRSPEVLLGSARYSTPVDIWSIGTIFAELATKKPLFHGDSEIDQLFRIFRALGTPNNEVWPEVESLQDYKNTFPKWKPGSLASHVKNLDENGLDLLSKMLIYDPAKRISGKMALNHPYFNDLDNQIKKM
CDK1 CCNB1 (human), sequence (P14635 whole entry, looked up): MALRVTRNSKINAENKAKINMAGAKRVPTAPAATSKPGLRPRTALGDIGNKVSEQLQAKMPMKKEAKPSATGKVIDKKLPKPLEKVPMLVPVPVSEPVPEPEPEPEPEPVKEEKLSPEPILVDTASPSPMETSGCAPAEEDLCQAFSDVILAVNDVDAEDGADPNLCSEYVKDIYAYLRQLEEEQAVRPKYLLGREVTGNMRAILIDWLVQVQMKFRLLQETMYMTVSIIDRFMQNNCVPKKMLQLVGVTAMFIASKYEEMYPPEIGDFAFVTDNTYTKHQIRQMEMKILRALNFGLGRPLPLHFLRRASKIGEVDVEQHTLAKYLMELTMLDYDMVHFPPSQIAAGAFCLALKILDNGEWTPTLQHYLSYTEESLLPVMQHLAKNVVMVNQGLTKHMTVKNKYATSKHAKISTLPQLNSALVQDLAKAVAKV
CDK1 CCNA2 (human), sequence (P06493 whole entry, looked up): as the sequence (P06493 whole entry, looked up) above
CDK1 CCNA2 (human), sequence (P20248 whole entry, looked up): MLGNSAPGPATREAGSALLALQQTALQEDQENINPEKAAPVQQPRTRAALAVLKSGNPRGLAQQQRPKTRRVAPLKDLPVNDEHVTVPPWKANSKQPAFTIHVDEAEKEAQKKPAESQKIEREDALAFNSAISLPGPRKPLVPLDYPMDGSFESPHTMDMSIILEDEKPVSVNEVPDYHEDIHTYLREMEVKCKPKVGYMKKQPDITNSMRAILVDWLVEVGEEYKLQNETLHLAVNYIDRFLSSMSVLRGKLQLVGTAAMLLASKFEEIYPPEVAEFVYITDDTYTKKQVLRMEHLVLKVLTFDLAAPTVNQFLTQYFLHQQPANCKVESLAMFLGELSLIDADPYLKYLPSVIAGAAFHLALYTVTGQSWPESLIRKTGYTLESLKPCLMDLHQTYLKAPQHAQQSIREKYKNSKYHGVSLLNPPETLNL
STK33 (human), sequence (Q9BYT3 whole entry, looked up): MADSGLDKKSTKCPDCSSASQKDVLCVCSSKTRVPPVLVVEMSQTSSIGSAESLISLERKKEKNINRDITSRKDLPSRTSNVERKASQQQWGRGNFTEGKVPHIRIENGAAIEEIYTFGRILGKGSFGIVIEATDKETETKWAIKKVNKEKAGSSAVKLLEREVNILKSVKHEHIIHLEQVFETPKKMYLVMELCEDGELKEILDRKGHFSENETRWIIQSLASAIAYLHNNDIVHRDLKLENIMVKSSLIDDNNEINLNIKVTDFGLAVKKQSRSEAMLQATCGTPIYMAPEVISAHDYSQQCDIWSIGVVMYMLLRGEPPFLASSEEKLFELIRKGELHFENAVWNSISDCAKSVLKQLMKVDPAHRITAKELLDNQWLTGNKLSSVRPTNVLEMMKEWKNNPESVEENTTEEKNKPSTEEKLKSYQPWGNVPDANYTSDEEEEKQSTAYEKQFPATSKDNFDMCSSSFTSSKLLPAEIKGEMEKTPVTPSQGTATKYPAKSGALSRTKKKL
CDK3 CCNE1 (human), sequence (P24864 whole entry, looked up): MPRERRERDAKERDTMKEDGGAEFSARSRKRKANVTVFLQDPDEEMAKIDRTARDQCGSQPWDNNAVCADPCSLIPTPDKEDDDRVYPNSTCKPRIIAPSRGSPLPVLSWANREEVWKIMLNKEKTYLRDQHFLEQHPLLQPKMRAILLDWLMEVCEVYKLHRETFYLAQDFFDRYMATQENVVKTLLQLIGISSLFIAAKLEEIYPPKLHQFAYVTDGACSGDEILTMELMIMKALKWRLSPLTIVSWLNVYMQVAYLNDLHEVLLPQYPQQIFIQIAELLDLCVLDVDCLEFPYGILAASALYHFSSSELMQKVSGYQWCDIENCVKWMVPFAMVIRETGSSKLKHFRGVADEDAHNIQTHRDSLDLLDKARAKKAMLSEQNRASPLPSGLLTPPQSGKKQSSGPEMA
CDK3 CCNE1 (human), sequence (Q00526 whole entry, looked up): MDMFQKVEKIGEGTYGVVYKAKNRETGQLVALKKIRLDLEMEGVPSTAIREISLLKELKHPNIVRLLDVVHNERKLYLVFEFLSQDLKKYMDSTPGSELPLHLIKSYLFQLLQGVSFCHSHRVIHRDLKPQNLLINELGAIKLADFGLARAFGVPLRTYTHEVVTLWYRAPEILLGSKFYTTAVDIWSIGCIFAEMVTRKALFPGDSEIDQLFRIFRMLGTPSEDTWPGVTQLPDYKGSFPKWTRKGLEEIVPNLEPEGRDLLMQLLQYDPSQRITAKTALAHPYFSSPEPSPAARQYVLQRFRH
CDK2 CCNE1 (human), sequence (P24864 whole entry, looked up, other chains not shown): as the sequence (P24864 whole entry, looked up) above
CDK2 CCNA2 (human), sequence (P20248 whole entry, looked up, other chains not shown): as the sequence (P20248 whole entry, looked up) above

| SMILES | residual activity (CDK1 CCNA2 (human)) | residual activity (CDK1 CCNB1 (human)) | residual activity (CDK2 CCNA2 (human)) | residual activity (CDK2 CCNE1 (human)) | residual activity (CDK3 CCNE1 (human)) | residual activity (CDK4 CCND1 (human)) | residual activity (CDK4 CCND3 (human)) | residual activity (CDK5 CDK5R1 p25 (human)) | residual activity (CDK5 CDK5R1 p35 (human)) | residual activity (CDK6 CCND1 (human)) | residual activity (CDK6 CCND3 (human)) | residual activity (CDK7 CCNH MNAT1 (human)) | residual activity (CDK9 CCNK (human)) | residual activity (CDK9 CCNT1 (human)) | residual activity (DYRK1B (human)) | residual activity (LTK (human)) | residual activity (MAP3K7 TAB1 (human)) | residual activity (STK33 (human)) | residual activity (PRKCH (human)) |
| --- | --- | --- | --- | --- | --- | --- | --- | --- | --- | --- | --- | --- | --- | --- | --- | --- | --- | --- | --- |
| NCCNc1ncc(C(N)=O)c(Nc2cccc(C(F)(F)F)c2)n1 | 88.3% | 81.7% | 97.6% | 89% | 95.3% | 108% | 94.8% | 92.4% | 84.2% | 94.6% | 100% | 98.5% | 95.6% | 82% | 85.9% | 84.8% | 71.2% | 81.9% |  |
| CN1CCN(c2ccc3nc(-c4c(N)c5c(F)cccc5[nH]c4=O)[nH]c3c2)CC1 | 93.6% | 90.9% | 91% | 92.3% | 92.3% | 79.5% | 89.6% |  |  | 74.6% | 31.9% | 104% | 91.1% | 97.7% | 87.9% | 92.5% | 19.3% | 60.7% | 103% |
| Cc1cn(-c2cc(NC(=O)c3ccc(C)c(Nc4nccc(-c5cccnc5)n4)c3)cc(C(F)(F)F)c2)cn1 | 99.7% | 97.8% | 95.5% | 98.9% | 95.2% | 97% | 108% | 91.7% | 105% | 97.1% | 128% | 109% | 97.9% | 94.7% | 92.8% | 101% | 89.2% | 87.1% | 121% |
| O=C1c2ccccc2-c2n[nH]c3cccc1c23 | 85.6% | 63.4% | 76.1% | 79.5% | 94.3% | 96.3% | 104% |  |  | 88.6% | 88.6% | 94.7% | 96% | 99.3% | 65.7% | 77.8% | 59.3% | 47.7% | 87.6% |
